Data taken from patent US10550127B1, “Indanylaminoazadihydrobenzofuranylacetic acids, pharmaceutical compositions for the treatment of diabetes” (Boehringer Ingelheim International GmbH, priority 2017, dated 2020).
In brackets after ≈: the same amount, converted by molar mass.

How the values were obtained:
human GPR40 receptor = human GPR40 receptor (Homo sapiens (Human), UniProt O14842); assay: IP1 accumulation measurements using the IPOne assay system; format: cell-based; details: 1321N1 cells stably expressing human GPR40, 1 h stimulation
Sequence of human GPR40 receptor (O14842 whole entry): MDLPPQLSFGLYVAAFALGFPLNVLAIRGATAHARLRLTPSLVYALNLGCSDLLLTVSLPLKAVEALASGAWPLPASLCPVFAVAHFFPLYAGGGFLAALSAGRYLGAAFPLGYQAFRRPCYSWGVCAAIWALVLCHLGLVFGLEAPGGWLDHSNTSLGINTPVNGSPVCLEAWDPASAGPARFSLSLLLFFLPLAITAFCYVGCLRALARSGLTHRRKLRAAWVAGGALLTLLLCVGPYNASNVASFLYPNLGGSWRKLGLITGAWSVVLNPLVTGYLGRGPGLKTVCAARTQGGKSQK
Procedure: IP1 accumulation measurements using the IPOne assay system—1321N1 cells stably expressing human GPR40 receptor (Euroscreen, Belgium) are seeded 24 h before the assay in white 384-well plates in culture medium containing 10% FCS, 1% Na-Pyruvate and 400 μg/mL G418. IP1 is assayed according to the manufacturer's description (Cisbio Bioassays, France). In brief, the assay is started by substitution of the culture medium by stimulation buffer (Hepes 10 mM, CaCl2) 1 mM, MgCl2 0.5 mM, KCl 4.2 mM, NaCl 146 mM, glucose 5.5 mM and LiCl 50 mM, pH 7.4). Cells are stimulated for 1 h at 37° C., 5% CO2 by addition of the compounds that are diluted in stimulation buffer containing LiCl. Assays are stopped by adding HTRF-conjugates (IP1-d2 and Anti-IP1 cryptate Tb) and lysis buffer, provided by the manufacturer. After an incubation time of 1 h at room temperature plates are measured using an EnVision™, Perkin Elmer. The obtained fluorescence ratios at 665/615 […] are then used to calculate the pEC50 values using Assay Explorer 3.3 Software (Accelrys, Inc.) by interpolation using an IP1 reference curve and subsequent sigmoidal curve fitting allowing for a variable hill slope.

Aqueous solubility = format: physicochemical; details: aqueous buffer, kinetic from dmso stock, buffer pH 2.2, 24 h shaking, 2.5% DMSO
Procedure: The aqueous solubility of the compounds of the invention is determined by comparing the amount dissolved in buffer to the amount in an acetonitrile/water (1/1) solution. Starting from a 10 mM DMSO stock solution aliquots are diluted with acetonitrile/water (1/1) or buffer, respectively. After 24 h of shaking, the solutions are filtrated and analyzed by LC-UV. The amount dissolved in buffer is compared to the amount in the acetonitrile solution.
Solubility is usually being measured from 0.001 to 0.125 mg/mL at a DMSO concentration of 2.5%. If more than 90% of the compound is dissolved in buffer, the value is marked with “>”.

[1] = target: cytochrome P450 2C8-isoenzyme (Homo sapiens (Human), UniProt P10632); assay: Inhibition of CYP-2C8 (amodiaquine deethylation, human liver microsomes); format: in vitro ADME; details: amodiaquine 1 μM, 37° C.
Sequence of cytochrome P450 2C8-isoenzyme (P10632 whole entry): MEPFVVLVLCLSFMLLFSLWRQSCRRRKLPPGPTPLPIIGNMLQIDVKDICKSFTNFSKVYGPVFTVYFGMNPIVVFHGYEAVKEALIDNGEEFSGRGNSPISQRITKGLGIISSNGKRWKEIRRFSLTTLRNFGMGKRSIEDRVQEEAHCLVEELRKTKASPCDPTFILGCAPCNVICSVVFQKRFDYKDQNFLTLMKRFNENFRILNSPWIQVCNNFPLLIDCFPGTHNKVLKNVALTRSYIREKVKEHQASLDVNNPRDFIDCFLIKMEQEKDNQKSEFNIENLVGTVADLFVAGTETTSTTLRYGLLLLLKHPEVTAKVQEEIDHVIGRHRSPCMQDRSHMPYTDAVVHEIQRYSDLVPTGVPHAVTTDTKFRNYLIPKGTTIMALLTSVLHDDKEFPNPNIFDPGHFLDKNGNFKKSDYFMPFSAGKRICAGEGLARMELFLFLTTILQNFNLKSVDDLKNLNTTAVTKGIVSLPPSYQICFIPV
Procedure: (§1) All assays are carried out on a robotic system in 96 well plates. The final incubation volume contains TRIS buffer (0.1 M), MgCl2 (5 mM), human liver microsomes (0.05 mg/mL), amodiaquine (1 μM) and the test compound at five different concentrations or no compound (high control) in duplicate (e.g. highest concentration 10-50 μM with subsequent serial 1:4 dilutions). Following a short preincubation period, reactions are started with the cofactor (NADPH, 1 mM) and stopped by cooling the incubation down to 8° C. and subsequently by addition of one volume of acetonitrile. An internal standard solution—the stable isotope d5-desethylamodiaquine—is added after quenching of incubations. Peak area analyte (=metabolite formed) and internal standard is determined by LC-MS/MS. The resulting peak area ratio analyte to internal standard in these incubations is compared to a control activity containing no test compound. Within each of the assay runs, the IC50 of a positive control inhibitor (Montelukast) is determined. Experimental IC50 values are calculated by least square regression according to the following equation: % control activity=(100% control activity/(1+(I/IC50)S))−B with I=inhibitor concentration; S=slope factor; B=background activity (lower plateau of the inhibition curve)
If the inhibition of the reaction is already >50% at the lowest concentration of the test compound, the IC50 is assigned “<lowest concentration tested” (usually <0.4 μM). If the inhibition of the reaction is still <50% at the highest concentration of the test compound, the IC50 is assigned “> highest concentration tested” (usually >50 μM).

[2] = target: cytochrome P450 2C9-isoenzyme (Homo sapiens (Human), UniProt P11712); assay: Inhibition of CYP-2C9 (diclofenac hydroxylation, human liver microsomes); format: in vitro ADME; details: diclofenac 10 μM, 37° C.
Sequence of cytochrome P450 2C9-isoenzyme (P11712 whole entry): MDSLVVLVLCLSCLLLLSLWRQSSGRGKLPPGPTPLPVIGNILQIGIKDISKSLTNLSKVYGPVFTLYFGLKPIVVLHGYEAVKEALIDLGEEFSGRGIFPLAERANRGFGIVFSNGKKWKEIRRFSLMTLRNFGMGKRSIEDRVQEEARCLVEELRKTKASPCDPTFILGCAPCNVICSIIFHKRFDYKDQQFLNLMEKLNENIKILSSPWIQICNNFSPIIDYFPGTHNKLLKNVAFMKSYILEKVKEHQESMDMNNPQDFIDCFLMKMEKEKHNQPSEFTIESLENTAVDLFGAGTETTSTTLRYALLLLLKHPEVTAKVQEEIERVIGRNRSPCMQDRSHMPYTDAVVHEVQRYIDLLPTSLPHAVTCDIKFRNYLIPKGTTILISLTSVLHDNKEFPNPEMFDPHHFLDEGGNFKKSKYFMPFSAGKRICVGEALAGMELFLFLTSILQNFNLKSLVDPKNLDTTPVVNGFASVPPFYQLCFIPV
Procedure: as §1, with “(0.1” for “(0.05”, “diclofenac (10” for “amodiaquine (1”, “(e.g.,” for “(e.g.”, “^13C6-hydroxydiclofenac—is” for “d5-desethylamodiaquine—is”, “(sulfaphenazole)” for “(Montelukast)”, “curve) […]” for “curve)”

For `Cc1cc(-c2nnn(C)n2)cc(C)c1-c1ccc(F)c2c1CC[C@H]2Nc1cc2c(cn1)[C@H](CC(=O)O)CO2` [Example 5, ((S)-6-{(R)-4-[2,6-Dimethyl-4-(2-methyl-2H-tetrazol-5-yl)-phenyl]-7-fluoro-indan-1-ylamino}-2,3-dihydro-furo[3,2-c]pyridin-3-yl)-acetic Acid], the EC50 (human GPR40 receptor) was 0.006 µM, the solubility at 24 h (Aqueous solubility) was 0.047 mg/mL (≈ 91.3 µM) and the IC50 [1] was 35 µM. It also gave an IC50 [2] greater than 50 µM.

`Cc1cc(OCCC(C)(C)O)cc(C)c1-c1ccc(F)c2c1CC[C@H]2Nc1cc2c(cn1)[C@H](CC(=O)O)CO2` [Example 1, ((S)-6-{(R)-7-Fluoro-4-[4-(3-hydroxy-3-methyl-butoxy)-2,6-dimethyl-phenyl]-indan-1-ylamino}-2,3-dihydro-furo[3,2-c]pyridin-3-yl)-acetic Acid] gave an EC50 (human GPR40 receptor) of 0.015 µM, a solubility at 24 h (Aqueous solubility) greater than 0.094 mg/mL and an IC50 [1] of 30 µM. It also gave an IC50 [2] greater than 50 µM.
